From the supplement of paper PMC11451515

Tested on: P12-Ichikawa
Experiment: cell viability relative to DMSO control; higher = less cytotoxic
Details: 48 h
Procedure, shortened: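 Before seeding, each leukemia line was adapted for at least four passages in each medium. NOMO1 or SEM cells (500 cells/well) and P12-Ichikawa cells (1000 cells/well) went into 1536-well plates at 5 μl, then received library compounds in DMSO by pin dosing across 11 threefold concentrations, 47 μM to 0.79 nM. Readout was CellTiter-Glo One luminescence after 48 h at 37°C, and viability is given as a per-plate percentage of DMSO wells, with cell-free wells as background.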

[1] = HPLM + 10% dialyzed FBS, 0.000781 µM
[2] = HPLM + 10% dialyzed FBS, 0.00234 µM
[3] = HPLM + 10% dialyzed FBS, 0.00702 µM
[4] = HPLM + 10% dialyzed FBS, 0.0211 µM
[5] = HPLM + 10% dialyzed FBS, 0.0632 µM
[6] = HPLM + 10% dialyzed FBS, 0.19 µM
[7] = HPLM + 10% dialyzed FBS, 0.569 µM
[8] = HPLM + 10% dialyzed FBS, 1.71 µM
[9] = HPLM + 10% dialyzed FBS, 5.12 µM
[10] = HPLM + 10% dialyzed FBS, 15.4 µM
[11] = HPLM + 10% dialyzed FBS, 46.1 µM
[12] = RPMI 5 mM glucose + 10% FBS, 0.000781 µM
[13] = RPMI 5 mM glucose + 10% FBS, 0.00234 µM
[14] = RPMI 5 mM glucose + 10% FBS, 0.00702 µM
[15] = RPMI 5 mM glucose + 10% FBS, 0.0211 µM
[16] = RPMI 5 mM glucose + 10% FBS, 0.0632 µM
[17] = RPMI 5 mM glucose + 10% FBS, 0.19 µM
[18] = RPMI 5 mM glucose + 10% FBS, 0.569 µM
[19] = RPMI 5 mM glucose + 10% FBS, 1.71 µM
[20] = RPMI 5 mM glucose + 10% FBS, 5.12 µM
[21] = RPMI 5 mM glucose + 10% FBS, 15.4 µM
[22] = RPMI 5 mM glucose + 10% FBS, 46.1 µM
[23] = RPMI 5 mM glucose + 10% dialyzed FBS, 0.000781 µM
[24] = RPMI 5 mM glucose + 10% dialyzed FBS, 0.00234 µM
[25] = RPMI 5 mM glucose + 10% dialyzed FBS, 0.00702 µM
[26] = RPMI 5 mM glucose + 10% dialyzed FBS, 0.0211 µM
[27] = RPMI 5 mM glucose + 10% dialyzed FBS, 0.0632 µM
[28] = RPMI 5 mM glucose + 10% dialyzed FBS, 0.19 µM
[29] = RPMI 5 mM glucose + 10% dialyzed FBS, 0.569 µM
[30] = RPMI 5 mM glucose + 10% dialyzed FBS, 1.71 µM
[31] = RPMI 5 mM glucose + 10% dialyzed FBS, 5.12 µM
[32] = RPMI 5 mM glucose + 10% dialyzed FBS, 15.4 µM
[33] = RPMI 5 mM glucose + 10% dialyzed FBS, 46.1 µM

| SMILES | cell viability [1] [%] | cell viability [2] [%] | cell viability [3] [%] | cell viability [4] [%] | cell viability [5] [%] | cell viability [6] [%] | cell viability [7] [%] | cell viability [8] [%] | cell viability [9] [%] | cell viability [10] [%] | cell viability [11] [%] | cell viability [12] [%] | cell viability [13] [%] | cell viability [14] [%] | cell viability [15] [%] | cell viability [16] [%] | cell viability [17] [%] | cell viability [18] [%] | cell viability [19] [%] | cell viability [20] [%] | cell viability [21] [%] | cell viability [22] [%] | cell viability [23] [%] | cell viability [24] [%] | cell viability [25] [%] | cell viability [26] [%] | cell viability [27] [%] | cell viability [28] [%] | cell viability [29] [%] | cell viability [30] [%] | cell viability [31] [%] | cell viability [32] [%] | cell viability [33] [%] |
| --- | --- | --- | --- | --- | --- | --- | --- | --- | --- | --- | --- | --- | --- | --- | --- | --- | --- | --- | --- | --- | --- | --- | --- | --- | --- | --- | --- | --- | --- | --- | --- | --- | --- |
| NCCCCCC(=O)O | 107 | 109 | 106 | 90.4 | 117 | 105 | 114 | 104 | 102 | 95.3 | 101 | 102 | 101 | 98.6 | 85.2 | 109 | 105 | 110 | 101 | 92.2 | 105 | 88.4 | 98.2 | 112 | 108 | 84.1 | 108 | 97.2 | 105 | 94.7 | 96 | 88.4 | 92.4 |
| C=CCc1cc(OC)c(O)c(C(=O)NCCO)c1 | 106 | 113 | 109 | 108 | 106 | 109 | 99.4 | 105 | 103 | 93 | 98.2 | 99.6 | 112 | 95.4 | 104 | 113 | 100 | 103 | 95.4 | 101 | 93.7 | 89.4 | 98.9 | 108 | 104 | 104 | 103 | 101 | 105 | 104 | 84.4 | 105 | 94.1 |
| CN1CCN(Cc2ccc(NC(=O)Nc3ccc(Oc4cc(NC(=O)C5CC5)ncn4)cc3)cc2C(F)(F)F)CC1 | 100 | 108 | 103 | 113 | 114 | 113 | 46.7 | 9.49 | 10.2 | 8.59 | 0.0522 | 105 | 110 | 117 | 121 | 122 | 132 | 44.7 | 9.59 | 8.79 | 6.05 | 0.799 | 92.4 | 113 | 111 | 121 | 122 | 123 | 35.4 | 12.8 | 11.6 | 11.8 | 0.55 |
| CO[C@@H]1[C@@H](OC(N)=O)[C@@H](O)[C@H](OC2=CC=C3\C(=C(NC(=O)C4=CC=C([O-])C(=C4)CC=C(C)C)/C(=O)OC3=C2C)O)OC1(C)C | 118 | 108 | 119 | 115 | 111 | 106 | 110 | 104 | 102 | 100 | 100 | 107 | 108 | 124 | 110 | 114 | 110 | 113 | 110 | 108 | 94.2 | 97.8 | 109 | 105 | 109 | 110 | 105 | 106 | 108 | 109 | 98 | 98.5 | 88.3 |
| NC1CCC(Nc2nc(Nc3ccc(C(=O)N4CCCCC4)cc3)c3ncn(-c4cccc(F)c4)c3n2)CC1 (stereo unspecified) | 110 | 112 | 115 | 117 | 112 | 126 | 120 | 121 | 124 | 137 | 134 | 116 | 119 | 120 | 125 | 120 | 128 | 125 | 124 | 126 | 139 | 123 | 112 | 108 | 120 | 119 | 121 | 123 | 118 | 118 | 129 | 139 | 130 |
| C[C@H](NC(=O)Cc1cc(F)cc(F)c1)C(=O)N[C@@H]1C(=O)N(C)c2ccccc2-c2ccccc21 | 105 | 118 | 113 | 116 | 113 | 38.4 | 109 | 99.5 | 6.06 | 3.41 | 1.45 | 110 | 111 | 128 | 128 | 116 | 125 | 119 | 122 | 100 | 3.68 | 2.54 | 97.7 | 111 | 112 | 113 | 118 | 117 | 113 | 115 | 84.8 | 3.93 | 1.82 |
| CC(C[N+](C)(C)C)OC(N)=O (stereo unspecified) | 109 | 121 | 116 | 122 | 114 | 113 | 120 | 118 | 111 | 110 | 102 | – | – | – | – | – | – | – | – | – | – | – | 122 | 119 | 122 | 125 | 122 | 119 | 114 | 128 | 122 | 109 | 102 |
| CCCCCCCCOc1ccccc1C(=O)Nc1ccc(C(=O)OCC[N+](C)(CC)CC)cc1 | 93.6 | 94.9 | 98.2 | 95.8 | 97.7 | 98.3 | 89.1 | 91.4 | 85.6 | 84.2 | 71.8 | 91.6 | 102 | 89.9 | 107 | 104 | 104 | 93.4 | 91.3 | 85.2 | 87.7 | 49 | 89.3 | 83.5 | 88.2 | 90.3 | 95 | 86.2 | 91 | 90.3 | 78.6 | 83.4 | 46.4 |
| Cc1cccc(N(C)C(=S)Oc2ccc3ccccc3c2)c1 | 98.1 | 114 | 109 | 109 | 118 | 94.2 | 107 | 109 | 111 | 111 | 109 | 109 | 107 | 111 | 112 | 113 | 116 | 116 | 112 | 107 | 99.6 | 92.4 | 95.1 | 101 | 104 | 108 | 104 | 109 | 106 | 109 | 103 | 104 | 80.4 |
| CCOc1cc(/C=C2/C(=O)N(c3ccccc3)N=C2C)cc(Cl)c1OCC(=O)OC | 85.7 | 90.9 | 87.7 | 93.7 | 84.6 | 89.9 | 91.1 | 98.7 | 88.3 | 84.6 | 83.3 | 79.4 | 89.3 | 77.2 | 85.7 | 81 | 92.8 | 89.1 | 86.6 | 89.8 | 80.9 | 89.6 | 90.1 | 85.7 | 92 | 88 | 83 | 88.5 | 85 | 86.9 | 86.9 | 90.7 | 86.5 |
| C/C(=C\c1csc(C)n1)[C@@H]1C[C@@H]2O[C@]2(C)CCC[C@H](C)[C@H](O)[C@@H](C)C(=O)C(C)(C)[C@@H](O)CC(=O)O1 | 33.8 | 32.1 | 28.8 | 58.9 | 28.1 | 22.6 | 23.1 | 25.3 | 30.8 | 17.1 | 21.4 | 18.2 | 19.1 | 23.7 | 44.1 | 24.6 | 22.6 | 24.3 | 22.7 | 25.6 | 24.2 | 27 | 44.5 | 34.4 | 31.2 | 58 | 37.6 | 35.4 | 32.6 | 32.8 | 43.7 | 35.5 | 38 |
| FC1=CC=C(CN2\C=C/C=C(/C(=O)N[C@@H](COC3=CC4=C(NC(=O)N4)C=C3)C5=CC=CC=C5)C2=O)C=C1F | 89.1 | 97.2 | 98.9 | 96.2 | 104 | 98.8 | 97.3 | 89.2 | 76.4 | 70.1 | 64.7 | 82.9 | 90.2 | 85.9 | 86.8 | 88.9 | 88.9 | 86.9 | 72.6 | 53.9 | 50.5 | 44.8 | 81.6 | 89.4 | 90.5 | 94.6 | 89.3 | 94.5 | 79.9 | 76.6 | 58.5 | 54.2 | 45.4 |
| C[N+](C)(C)CC(=O)O.[Cl-] | 86.5 | 92 | 93 | 92.6 | 93.7 | 87 | 98.2 | 89.8 | 99.3 | 88.2 | 99.1 | 86.4 | 94.4 | 90.9 | 94.7 | 91.8 | 91.5 | 98 | 91.5 | 94.1 | 98 | 93.7 | 81.8 | 87.4 | 85.4 | 86 | 91.1 | 82.4 | 90.7 | 88.1 | 82.9 | 90.4 | 81.7 |
| Cc1cc(SCc2sc(-c3ccc(C(F)(F)F)cc3)nc2C)ccc1OCC(=O)O | 97.8 | 102 | 102 | 104 | 102 | 99.8 | 106 | 100 | 103 | 94.9 | 90.6 | 98.3 | 104 | 96.6 | 101 | 106 | 91.2 | 101 | 94.6 | 94.8 | 81.1 | 83.2 | 96.8 | 101 | 102 | 96.6 | 94.8 | 97 | 101 | 92.5 | 97.6 | 87.2 | 83.5 |
| CCc1c(O)cc(O)c(C(=O)c2ccc(OCCN3CCOCC3)c(OC)c2)c1CC(=O)N(CCOC)CCOC | 102 | 105 | 118 | 112 | 112 | 105 | 104 | 87.6 | 59.9 | 41.1 | 40.9 | 100 | 101 | 113 | 105 | 108 | 103 | 93.5 | 78 | 41.1 | 32.7 | 35.4 | 106 | 102 | 105 | 110 | 110 | 104 | 85 | 84.5 | 42.6 | 32 | 35 |
| Cc1ccc(NC(=O)c2cccc(N(C)C)c2)cc1NC(=O)c1ccc(O)cc1 | 120 | 120 | 118 | 116 | 111 | 116 | 119 | 108 | 108 | 108 | 96.7 | 114 | 122 | 120 | 127 | 113 | 111 | 119 | 113 | 113 | 102 | 95.2 | – | – | – | – | – | – | – | – | – | – | – |
